The subject of assay [1] is LNCaP cells. As to the kind of experiment: Boyden dual chamber migration assay. Format: cell-based, human. The procedure:
FIG. 7. CaMKKβ activity in the androgen-mediated migration and invasion of prostate cancer cells. A, LNCaP cells were plated in 96-well plates and grown for 3 d. […] On d 10, cells were lysed and the relative number of cells was measured with the fluorescent DNA binding dye FluoReporter Blue. Each sample was performed in triplicate, and results from a representative experiment are shown. […] Cells were then dissociated and reseeded into the top chamber for a Boyden migration or Matrigel extracellular matrix invasion assay. Fresh medium with the corresponding treatments was added to the top and bottom chambers while either no chemoattractant or 5% FBS (serum) was added to the bottom chamber. After 16 h, migrated cells were fixed, stained and counted in three different microscopic fields and added together. […] C top, LNCaP cells were transfected with indicated siRNAs. […] D right, LNCaP cells stably expressing either GAL4 (control) or CaMKKβ were subjected to a migration assay as described in B using +/-5% FBS as chemoattractant. The results are expressed as mean+SE (n=3). *, significant changes from LNCaP-GAL4 cells. D left, western blot confirming CaMKKβ […]expression. FIG. 11. Androgen-mediated migration occurs through a CaMKKβ-AMPK-dependent pathway. […] Results are expressed as fold induction/phosphorylation over double vehicle-treated cells+SE (n=3). *, significant changes from vehicle-treated cells. […] Results are expressed as fold induction/phosphorylation over LNCaP-GAL4 vehicle-treated cells+SE (n=3). *, significant changes from LNCaP-GAL4 vehicle-treated cells. […] The results are expressed as mean±SE (n=2). *, P<0.05 indicates significant changes from double vehicle-treated cells. ^#, P<0.05 indicates significant decreases from vehicle (no compound C)-treated cells. […] ACC is a direct target of AMPK and thus, was used as a readout of AMPK catalytic activity. […] Results are expressed as fold induction/phosphorylation over double vehicle-treated cells+SE (n=2). *, P<0.05 indicates significant changes from double vehicle-treated cells. […]

For assay [2], the system named is circulating tumor cells. Conditions: patients having a castration-resistant type cancer; cited from earlier work.
Assay [3] has as its system CaMKKβ mRNA. The assay can be described thus: qPCR of CaMKKβ mRNA in prostate cancer cells. To be noted: for CaMKKβ mRNA levels: R1881 0.1, 1, 10 nM, 24 h. The format is cell-based, human. The method, then: (§1) FIG. 1. Androgens increase CaMKKβ levels in an AR-dependent manner. LNCaP or VCaP cells were treated for 24 h with vehicle or increasing concentrations of the synthetic androgen R1881 (A—0.1, 1, and 10 nM; B—0.01, 0.1, 1, and 10 nM). A, after treatment, cells were lysed, and RNA was isolated and reversed transcribed. The expression of CaMKKβ was assessed using qPCR. B, after treatment, cells were subjected to western blot analysis and subsequent densitometry (top). CaMKKβ protein levels were normalized to GAPDH loading control. A and B, results are expressed as fold induction over vehicle-treated cells+SE (n=3). *, significant changes from vehicle-treated cells. C, LNCaP cells were transiently transfected with mock or Stealth siRNAs targeting a negative control (siLacZ) or CaMKKβ (#1-3). Two days later, cells were treated for 24 h+/−10 nM R1881. Whole-cell extracts were subjected to western blot analysis and densitometry (top) as described in B. *, significant changes from mock-transfected cells. D, LNCaP cells were transfected as described in C with mock or Stealth siRNAs targeting LacZ or AR and treated for 24 h. The expression of CaMKKβ was assessed as in A using qPCR.
FIG. 9. Identification of the ARE that regulates CaMKKβ expression. A, LNCaP cells were pretreated for 1 h with vehicle or 1 mg/mL cycloheximide followed by vehicle or 10 nM R1881 for 24 h. CaMKKβ or CXCR4 mRNA levels were quantified using qPCR. Results are expressed as fold induction over vehicle (no R1881)-treated cells±SE (n=3). *, significant changes from vehicle-treated cells. B, LNCaP cells were treated with vehicle (V) or 10 nM R1881 for 1 or 4 h. Cross-linked chromatin was immunoprecipitated with indicated antibodies. […]
(§2) RNA isolation, cDNA preparation, and quantitative and standard reverse transcription (RT)-PCR. RNA isolation, cDNA preparation and quantitative RT-PCR (qPCR) were performed as previously described using 36B4 as a control (12). […]
In general terms: Quantitative PCR measures a nucleic acid by following its amplification.

For assay [4], the system named is CaMKKβ protein. The assay can be described thus: Western blot of CaMKKβ protein in prostate cancer cells. To be noted: R1881 0.01, 0.1, 1, 10 nM, 24 h. Format: cell-based, human. The method, then:
as §1
(§3) Western blot analysis. […] For each sample, protein levels were determined by densitometry using the ImageJ software (NIH) and normalizing to indicated controls.
A general note: In western blotting, separated proteins are transferred to a membrane and probed.

Assay [5] concerns AR binding region ~2.3 kb upstream of the CaMKKβ transcriptional start site. The assay can be described thus: Chromatin immunoprecipitation of AR at the CaMKKβ upstream region. The format is cell-based, human. Conditions: LNCaP; 10 nM R1881 for 1 or 4 h. The procedure: (§4) FIG. 9. Identification of the ARE that regulates CaMKKβ expression. A, LNCaP cells were pretreated for 1 h with vehicle or 1 mg/mL cycloheximide followed by vehicle or 10 nM R1881 for 24 h. CaMKKβ or CXCR4 mRNA levels were quantified using qPCR. Results are expressed as fold induction over vehicle (no R1881)-treated cells±SE (n=3). *, significant changes from vehicle-treated cells. B, LNCaP cells were treated with vehicle (V) or 10 nM R1881 for 1 or 4 h. Cross-linked chromatin was immunoprecipitated with indicated antibodies. The precipitated DNA was amplified using primers spanning a region identified using ChIP on Chip data as a potential AR-binding site (indicated in top schematic) or a distal upstream region (negative control). The results are presented as percent input±SE (n=3). *, significant changes from IgG controls. C, various enhancer luciferase reporter constructs (depicted in top model) were transfected into LNCaP cells and treated overnight+/−10 nM R1881. After treatment, cells were harvested and assayed for luciferase activity. Luciferase values were normalized to β-galactosidase control. Data are the mean relative light units (RLUs)+SEM for one representative experiment performed in triplicate (n=3). *, significant changes from vehicle-treated cells. […]

In assay [6] the test system is AMPK. The assay can be described thus: Western blot of phospho-ACC (readout of AMPK catalytic activity). Format: cell-based, human. To be noted: LNCaP; 1 h 1, 10 or 40 mM compound C, overnight +/-10 nM R1881. The method, then: FIG. 13. AMPK and androgen-mediated prostate cancer cell migration. A, LNCaP cells were pretreated for 1 h with vehicle or increasing concentrations of compound C (10 or 40 mM) prior to overnight treatment+/−10 nM R1881 or 1 mM AICAR. Cells were then subjected to a migration assay as described in FIG. 7. The results are expressed as mean±SE (n=2). *, P<0.05 indicates significant changes from double vehicle-treated cells. ^#, P<0.05 indicates significant decreases from vehicle (no compound C)-treated cells. B, LNCaP cells were pretreated for 1 h with vehicle, 1, 10 or 40 mM compound C prior to overnight treatment+/−10 nM R1881. Cell lysates were then subjected to western blot analysis and subsequent densitometry (top). ACC is a direct target of AMPK and thus, was used as a readout of AMPK catalytic activity. Phospho-ACC (p-ACC) levels were normalized to total ACC. Results are expressed as fold induction/phosphorylation over double vehicle-treated cells+SE (n=2). *, P<0.05 indicates significant changes from double vehicle-treated cells. […]
as §3

Assay [7] has as its system CXCR4 mRNA. As to the kind of experiment: qPCR of CXCR4 mRNA in LNCaP cells. Format: cell-based, human. To be noted: 1 h 1 mg/mL cycloheximide, then 10 nM R1881 24 h. The method, then:
as §4, with “control.” for “control. Data are the mean relative light units (RLUs)+SEM for one representative experiment performed in triplicate (n=3). *, significant changes from vehicle-treated cells.”
as §2

The subject of assay [8] is distant metastases. Conditions: prostate cancer patients, clinical trials; cited from earlier work.

As to `NC(=O)c1ncn([C@@H]2O[C@H](CO)[C@@H](O)[C@H]2O)c1N` [AICAR, 5-aminoimidazole-4-carboxamide 1-b-D-ribo-furanoside], the “cell migration, treatment alone” value in assay [1] (overnight 1 mM AICAR, no androgen) is listed as “sufficient to increase cell migration”.

As to `CNC(=O)c1ccc(N2C(=S)N(c3ccc(C#N)c(C(F)(F)F)c3)C(=O)C2(C)C)cc1F` [MDV3100], the “number of circulating tumor cells in patients” value in assay [2] is on record as “decreases the number of circulating tumor cells in approximately half of the treated patients”.

For `C[C@]1(O)CC[C@H]2[C@@H]3CCC4=CC(=O)CCC4=C3C=C[C@@]21C` [R1881, Methyltrienolone], the “CaMKKβ mRNA levels” value in assay [3] (LNCaP) and in assay [3] (VCaP) was “increased in a dose-dependent manner” in each case. The CaMKKβ protein levels entry in assay [4] (LNCaP) and in assay [4] (VCaP) was “dose-dependent increase” throughout. Further, in assay [5], the “AR recruitment to the CaMKKβ upstream region” value is listed as “recruited to this region of the promoter within one hour”.

Take `c1cc(-c2cnn3cc(-c4ccc(OCCN5CCCCC5)cc4)cnc23)ccn1` [compound C]: the androgen-mediated cell migration result in assay [1] (1 h pretreatment with compound C (10 or 40 mM), overnight 10 nM R1881) is listed as “completely abolished androgen-mediated cell migration”. Also, in assay [6], the “AMPK kinase activity (phospho-ACC levels)” value is given as “inhibited its kinase activity”.

As for `C[C@@H]1C[C@@H]([C@H](O)CC2CC(=O)NC(=O)C2)C(=O)[C@@H](C)C1` [cycloheximide, Cycloheximide], the “R1881-mediated increase in CaMKKβ mRNA levels” value in assay [3] (LNCaP, 1 h 1 mg/mL cycloheximide, then 10 nM R1881 24 h) is recorded as “did not block”. For the same compound, in assay [7], the “expression of secondary androgen target genes (ex. CXCR4)” value is “inhibits the expression of secondary androgen target genes”.

In the case of `CC(C)C[C@H](NC(=O)[C@@H](COC(C)(C)C)NC(=O)[C@H](Cc1ccc(O)cc1)NC(=O)[C@H](CO)NC(=O)[C@H](Cc1c[nH]c2ccccc12)NC(=O)[C@H](Cc1cnc[nH]1)NC(=O)[C@@H]1CCC(=O)N1)C(=O)N[C@@H](CCCNC(=N)N)C(=O)N1CCC[C@H]1C(=O)NNC(N)=O` [goserelin], in assay [8], the “incidences of distant metastases” value was “reduced incidences of distant metastases”.

The record behind these values is patent publication US9999620B2, “CaMKK-β as a target for treating cancer” (Duke University, priority 2010, dated 2018).
